Here are results for 16 compounds from patent US9695330B2, “Liquid composition, pigment dispersion liquid, and aqueous ink composition for ink jet recording” (Seiko Epson Corporation, priority 2015, dated 2017).

For orientation: logP means a log measure of how a compound divides between an organic and an aqueous phase.

One data set is described as follows: Distribution coefficient of water-octanol (logP), OECD Test Guideline 107. The format is physicochemical.
Conditions: not given
For the compound `CCCC(=O)OCC(O)CO` (stereo not shown) [butyric acid 2,3-dihydroxypropyl], the “logP (distribution coefficient of water-octanol)” value was -0.21.

For the compound `CCC(=O)OCC(O)CO` (stereo not shown) [propionic acid 2,3-dihydroxypropyl], the “logP (distribution coefficient of water-octanol)” value was −0.75. On the same count and under the same terms, the same measure for `CCCCCC(=O)OCC(O)CO` (stereo not shown) [hexanoic acid 2,3-dihydroxypropyl]: 0.85.

`CCCCC(CC)COCC(O)CO` (stereo not shown) [3-(2-ethylhexyloxy)-1,2-propanediol] yielded a logP of 2.53. On to `C=C(C)C(=O)OCC(O)CO` (stereo not shown) [methacrylic acid 2,3-dihydroxypropyl], for which the “logP (distribution coefficient of water-octanol)” value is on record as −0.12.

The same data set, now with this note: octanol/water.
`CCCCCCOCC(O)CO` (stereo not shown) [3-hexyloxy-1,2-propanediol] registered a log partition coefficient (logP) of 0.36. As to `CC1CCC(C(C)C)C(OCC(O)CO)C1` (stereo not shown) [3-menthyloxy-1,2-propanediol], the logP came out at 2.6.

In turn, `CCOCC(O)CO` (stereo not shown) [3-ethoxy-1,2-propanediol] gave a lipophilicity (logP) of -0.43. Compound `C=CCOCC(O)CO` (stereo not shown) [3-allyloxy-1,2-propanediol] registered a lipophilicity (logP) of -0.46. `COCC(O)CO` (stereo not shown) [3-methoxy-1,2-propanediol] returned a logP of -0.62.

As for `CC(C)CCOCC(O)CO` (stereo not shown) [3-isopentyloxy-1,2-propanediol], the logP came out at 0.94.

`OCC(O)COC1CCCCC1` (stereo not shown) [3-cyclohexyloxy-1,2-propanediol]: the logP is 1.

In turn, `CCCCCOCC(O)CO` (stereo not shown) [3-pentyloxy-1,2-propanediol] yielded a lipophilicity (logP) of 0.9. On to `CCCCOCC(O)CO` (stereo not shown) [3-butoxy-1,2-propanediol], for which the logP was 0.59. The same measure, in the same setting: the same measure for `C#CCOCC(O)CO` (stereo not shown) [3-(2-propynyloxy)-1,2-propanediol]: 0.75. As to `CC(=O)OCC(COC(C)=O)OC(C)=O` [glycerol triacetate], the log partition coefficient (logP) was -0.24.
